From patent publication US20040242566A1, “Dipeptidyl peptidase inhibitors” (Syrrx, Inc., priority 2003, published 2004)

Experiment: in vitro
Conditions: rat, rat liver microsomes, pH 7.4
Procedure: Several compounds were evaluated for stability in rat liver microsomes.
The test compounds (1 p) were incubated at 37° C. in phosphate buffer (50 mM, pH 7.4) containing rat liver microsomes (1 mg/mL protein) and NADPH (Nicotinamide Adenine Dinucleotide Phosphate, reduced form) (4 mM). The incubation mixtures were quenched with trichloroacetic acid (0.3 M) over 0, 5, 15, 30 min time-course. Quenched solutions were centrifuged and supernatants were transferred for LC/MS quantitation. The half life of a test compounds was derived from the compound stability curve over the time course.

Row | SMILES | half-life at 1 p [min]
1 | COc1cc2nc(N3CCCC(N)C3)n(Cc3ccccc3C#N)c(=O)c2cc1OC (stereo not drawn) [Example 2, 2-[2-(3-Amino-piperidin-1-yl)-6,7-dimethoxy-4-oxo-4H-quinazolin-3-ylmethyl]-benzonitrile] | 107
2 | N#Cc1ccccc1Cn1c(N2CCCC(N)C2)nc2ccc(F)cc2c1=O (stereo not drawn) [Example 6, 2-[2-(3-Amino-piperidin-1-yl)-6-fluoro4-oxo4H-quinazolin-3-ylmethyl]-benzonitrile] | 31
3 | N#Cc1ccccc1Cn1c(N2CCCC(N)C2)nc2ccccc2c1=O (stereo not drawn) [Example 1, 2-[2-(3-Amino-piperidin-1-yl)-4-oxo4H-quinazolin-3-ylmethyl]-benzonitrile] | 2.5
